Experimental data published in patent US9556165B2 (priority 2012, dated 2017).
≈ marks a conversion by molar mass, not a printed value. Like-named read-outs stand apart in the source and are kept apart here.

Legend:
Assay type in all cases: cell-based
B. fragilis 6688 = assay: MIC determination, broth microdilution (CLSI); conditions: Bacteroides fragilis, 6688, strain 15; broth microdilution; read-out: MIC strain 15 (B. fragilis 6688)
P. aeruginosa PAO1 = assay: MIC determination, broth microdilution (CLSI); conditions: Pseudomonas aeruginosa, PAO1, strain 6
C. freundii K21/3034 = assay: MIC determination, broth microdilution (CLSI); conditions: Citrobacter freundii, K21/3034, strain 4
Bacteria = assay: MIC determination in combination with β-lactamase inhibitors (constant 4 μg/mL)
[1] = system: P. aeruginosa 2297 (AmpC wt); assay: MIC determination, broth microdilution (CLSI); conditions: Pseudomonas aeruginosa, strain 7
H. influenzae ATCC 49247 = assay: MIC determination, broth microdilution (CLSI); conditions: Haemophilus influenzae, ATCC49247, strain 12; broth microdilution; read-out: MIC strain 12 (H. influenzae ATCC 49247)
E. coli ATCC25922 = assay: MIC determination, broth microdilution (CLSI); conditions: Escherichia coli, ATCC25922, strain 1
S. aureus 133 = assay: MIC determination, broth microdilution (CLSI)
S. pneumoniae 113 = assay: MIC determination, broth microdilution (CLSI); conditions: Streptococcus pneumoniae, 113, strain 13; broth microdilution; read-out: MIC strain 13 (S. pneumoniae 113)
K. pneumoniae 60 = assay: MIC determination, broth microdilution (CLSI); conditions: Klebsiella pneumoniae, 60, strain 2
[2] = system: P. aeruginosa 2297-con (AmpC derepressed); assay: MIC determination, broth microdilution (CLSI); conditions: Pseudomonas aeruginosa, read-out: strain 8 MIC, strain 8
A. baumannii ATCC15308 = assay: MIC determination, broth microdilution (CLSI); conditions: Acinetobacter baumannii, ATCC15308, strain 9
E. coli J62 = assay: MIC determination, broth microdilution (CLSI); conditions: Escherichia coli, J62, strain 17; broth microdilution; read-out: MIC strain 17 (E. coli J62)
M. morganii 126/3048 = assay: MIC determination, broth microdilution (CLSI); conditions: Morganella morganii, 126/3048, strain 5
E. cloacae 34654 = assay: MIC determination, broth microdilution (CLSI); conditions: Enterobacter cloacae, 34654, strain 3
E. coli J62-TEM-3 = assay: MIC determination, broth microdilution (CLSI); conditions: Escherichia coli, J62TEM3, read-out: MIC strain 18 (E. coli J62-TEM-3), strain 18; broth microdilution
[3] = Staphylococcus aureus, 133, strain 11, read-out: strain 11 MIC
[4] = Staphylococcus aureus, 133, strain 14, broth microdilution, read-out: MIC strain 14 (S. aureus 133)

Structure (SMILES) | MIC (B. fragilis 6688) | MIC (P. aeruginosa PAO1) | MIC (C. freundii K21/3034) | MIC strain 19 (E. coli J62-TEM-3 + 4 μg/mL clavulanic acid) (Bacteria) | MIC strain 20 (E. coli J62-TEM-3 + 4 μg/mL sulbactam) (Bacteria) | MIC strain 21 (E. coli J62-TEM-3 + 4 μg/mL tazobactam) (Bacteria) | MIC [1] | MIC (H. influenzae ATCC 49247) | MIC (E. coli ATCC25922) | MIC (S. aureus 133; [3]) | MIC (S. aureus 133; [4]) | MIC (S. pneumoniae 113) | MIC (K. pneumoniae 60) | MIC [2] | MIC (A. baumannii ATCC15308) | MIC (E. coli J62) | MIC (M. morganii 126/3048) | MIC (E. cloacae 34654) | MIC (E. coli J62-TEM-3)
C[C@H]1[C@H](NC(=O)/C(=N\OCCCOc2ccc(NC(=N)N)cc2)c2csc(N)n2)C(=O)N1S(=O)(=O)O [Example 51, (2S,3S)-3-{[(2Z)-2-(2-Amino-1,3-thiazol-4-yl)-2-{[3-(4-carbamimidamidophenoxy)propoxy]imino}acetyl]amino}-2-methyl-4-oxoazetidine-1-sulfonic acid] | 16 µg/mL (≈ 29.6 µM) | 16 µg/mL (≈ 29.6 µM) | 2 µg/mL (≈ 3.7 µM) | 4 µg/mL | 4 µg/mL | 4 µg/mL | 16 µg/mL (≈ 29.6 µM) | 0.5 µg/mL (≈ 0.925 µM) | 2 µg/mL (≈ 3.7 µM) | 0.5 µg/mL (≈ 0.925 µM) | 8 µg/mL (≈ 14.8 µM) | 1 µg/mL (≈ 1.85 µM) | 4 µg/mL (≈ 7.4 µM) | 32 µg/mL (≈ 59.2 µM) | 4 µg/mL (≈ 7.4 µM) | 4 µg/mL (≈ 7.4 µM) | 2 µg/mL (≈ 3.7 µM) | 2 µg/mL (≈ 3.7 µM) | –
C[C@H]1[C@H](NC(=O)/C(=N\OCCOc2cccc(C(=N)N)c2)c2csc(N)n2)C(=O)N1S(=O)(=O)O [Example 53, (2S,3S)-3-{[(2Z)-2-(2-Amino-1,3-thiazol-4-yl)-2-{[2-(3-carbamimidoylphenoxy)ethoxy]imino}acetyl]amino}-2-methyl-4-oxoazetidine-1-sulfonic acid] | – | 16 µg/mL (≈ 31.3 µM) | 0.5 µg/mL (≈ 0.977 µM) | 1 µg/mL | 1 µg/mL | 1 µg/mL | 16 µg/mL (≈ 31.3 µM) | – | 0.5 µg/mL (≈ 0.977 µM) | – | 32 µg/mL (≈ 62.6 µM) | – | – | 32 µg/mL (≈ 62.6 µM) | 4 µg/mL (≈ 7.82 µM) | 1 µg/mL (≈ 1.95 µM) | 2 µg/mL (≈ 3.91 µM) | 0.5 µg/mL (≈ 0.977 µM) | –
C[C@H]1[C@H](NC(=O)/C(=N\OCCOc2ccc(C(=N)N)cc2)c2nsc(N)n2)C(=O)N1S(=O)(=O)O [Example 52] | 32 µg/mL (≈ 62.4 µM) | 4 µg/mL (≈ 7.8 µM) | 0.25 µg/mL (≈ 0.488 µM) | 2 µg/mL | 2 µg/mL | 2 µg/mL | 4 µg/mL (≈ 7.8 µM) | 8 µg/mL (≈ 15.6 µM) | 1 µg/mL (≈ 1.95 µM) | 2 µg/mL (≈ 3.9 µM) | 8 µg/mL (≈ 15.6 µM) | 16 µg/mL (≈ 31.2 µM) | 0.5 µg/mL (≈ 0.976 µM) | 16 µg/mL (≈ 31.2 µM) | 1 µg/mL (≈ 1.95 µM) | 2 µg/mL (≈ 3.9 µM) | 1 µg/mL (≈ 1.95 µM) | 1 µg/mL (≈ 1.95 µM) | –
CC1(C)[C@H](NC(=O)/C(=N\O[C@H](COc2ccc(C(=N)NCCNc3ncccn3)cc2)C(=O)O)c2csc(N)n2)C(=O)N1OS(=O)(=O)O [Example 111, (2R)-2-({[(1Z)-1-(2-Amino-1,3-thiazol-4-yl)-2-{[(3S)-2,2-dimethyl-4-oxo-1-(sulfooxy)-azetidin-3-yl]amino}-2-oxoethylidene]amino}oxy)-3-(4-{N-[2-(pyrimidin-2-ylamino)ethyl]carbamimidoyl}phenoxy)propanoic acid] | – | 32 µg/mL (≈ 45.3 µM) | 4 µg/mL (≈ 5.66 µM) | 8 µg/mL | 8 µg/mL | 8 µg/mL | 32 µg/mL (≈ 45.3 µM) | 0.25 µg/mL (≈ 0.354 µM) | 8 µg/mL (≈ 11.3 µM) | – | – | 2 µg/mL (≈ 2.83 µM) | 8 µg/mL (≈ 11.3 µM) | 32 µg/mL (≈ 45.3 µM) | 32 µg/mL (≈ 45.3 µM) | 16 µg/mL (≈ 22.6 µM) | 8 µg/mL (≈ 11.3 µM) | 16 µg/mL (≈ 22.6 µM) | 32 µg/mL (≈ 45.3 µM)
C[C@@H]1[C@H](NC(=O)/C(=N\OCCCOc2ccc(C(=N)N)cc2)c2csc(N)n2)C(=O)N1S(=O)(=O)O [Example 48, (2R,3S)-3-{[(2Z)-2-(2-Amino-1,3-thiazol-4-yl)-2-{[3-(4-carbamimidoylphenoxy)propoxy]imino}acetyl]amino}-2-methyl-4-oxoazetidine-1-sulfonic acid] | 16 µg/mL (≈ 30.4 µM) | 8 µg/mL (≈ 15.2 µM) | 2 µg/mL (≈ 3.81 µM) | 2 µg/mL | 2 µg/mL | 2 µg/mL | 16 µg/mL (≈ 30.4 µM) | 0.5 µg/mL (≈ 0.951 µM) | 2 µg/mL (≈ 3.81 µM) | 0.5 µg/mL (≈ 0.951 µM) | 4 µg/mL (≈ 7.61 µM) | 1 µg/mL (≈ 1.9 µM) | 4 µg/mL (≈ 7.61 µM) | 32 µg/mL (≈ 60.9 µM) | 8 µg/mL (≈ 15.2 µM) | 2 µg/mL (≈ 3.81 µM) | 1 µg/mL (≈ 1.9 µM) | 4 µg/mL (≈ 7.61 µM) | –
C[C@H]1[C@H](NC(=O)/C(=N\OCCOc2ccc(NC(=N)N)cc2)c2csc(N)n2)C(=O)N1S(=O)(=O)O [Example 50, (2S,3S)-3-{[(2Z)-2-(2-Amino-1,3-thiazol-4-yl)-2-{[2-(4-carbamimidamidophenoxy)ethoxy]imino}acetyl]amino}-2-methyl-4-oxoazetidine-1-sulfonic acid] | 16 µg/mL (≈ 30.4 µM) | 8 µg/mL (≈ 15.2 µM) | 1 µg/mL (≈ 1.9 µM) | 1 µg/mL | 1 µg/mL | 1 µg/mL | 16 µg/mL (≈ 30.4 µM) | 0.25 µg/mL (≈ 0.475 µM) | 0.5 µg/mL (≈ 0.95 µM) | 0.125 µg/mL (≈ 0.237 µM) | 8 µg/mL (≈ 15.2 µM) | 1 µg/mL (≈ 1.9 µM) | 0.5 µg/mL (≈ 0.95 µM) | 32 µg/mL (≈ 60.8 µM) | 2 µg/mL (≈ 3.8 µM) | 1 µg/mL (≈ 1.9 µM) | 0.5 µg/mL (≈ 0.95 µM) | 1 µg/mL (≈ 1.9 µM) | –
C[C@H]1[C@H](NC(=O)/C(=N\OCc2ccc(C(=N)N)cc2)c2csc(N)n2)C(=O)N1S(=O)(=O)O [Example 55, (2S,3S)-3-{[(2Z)-2-(2-Amino-1,3-thiazol-4-yl)-2-{[(4-carbamimidoylbenzyl)oxy]imino}-acetyl]amino}-2-methyl-4-oxoazetidine-1-sulfonic acid] | 8 µg/mL (≈ 16.6 µM) | 16 µg/mL (≈ 33.2 µM) | 0.25 µg/mL (≈ 0.519 µM) | 1 µg/mL | 0.5 µg/mL | 0.5 µg/mL | – | 1 µg/mL (≈ 2.08 µM) | 0.5 µg/mL (≈ 1.04 µM) | 0.25 µg/mL (≈ 0.519 µM) | 8 µg/mL (≈ 16.6 µM) | 0.125 µg/mL (≈ 0.26 µM) | 1 µg/mL (≈ 2.08 µM) | 32 µg/mL (≈ 66.5 µM) | 4 µg/mL (≈ 8.31 µM) | 1 µg/mL (≈ 2.08 µM) | 0.25 µg/mL (≈ 0.519 µM) | 0.5 µg/mL (≈ 1.04 µM) | –
